System: patient diagnosed with hemophagocytic syndrome
Assay: Clinical protocol for hemophagocytic syndrome (patient cases)
Assay type: in vivo, human
Method: Example 1. Clinical Protocol for Hemophagocytic Syndrome
Method of administration: orally administered once before breakfast in the morning and once after 12 h, with 28 consecutive days of administration as one treatment cycle.
Drug: the compound of formula I in 5 mg or 20 mg tablets, the compound of formula I being shown as its stereoisomer, a compound of formula II
[drawing 5] 1.2. Inclusion Criteria • 1) Age ≥18 years; ECOG scoring: 0-3; an expected survival of more than 3 months; • 2) A patient unambiguously diagnosed as having a first occurrence or first recurrence of HLH according to the HLH-2004 criteria; • 3) Other medication for HLH, if any, has been interrupted for 2 weeks or more; it has been 4 weeks or more since major surgery, if any; • 4) Laboratory tests should meet the following: blood routine examination: hemoglobin (Hb)≥60 g/L; absolute neutrophil count (ANC)≥0.5×10^9/L; platelet (PLT)≥30×10^9/L; liver function: serum total bilirubin (TBIL)<171 μmol/L; renal function: serum creatinine (Cr)≤1.5×ULN; blood coagulation function: activated partial thromboplastin time (APTT) and international normalized ratio (INR)≤1.5×ULN; • 5) Female patients should agree to take contraceptive measures (such as intrauterine devices [IUD], contraceptives or condoms) during the study and for at least 6 months after the study; serum pregnancy test results should be negative within 7 days before the study, and the patients must not be breastfeeding; male subjects should agree to take contraceptive measures during the study and for at least 6 months after the study; • 6) Voluntary participation, written informed consent and good compliance. 1.3. Evaluation Method
The therapeutic effect was evaluated by referring to the criteria of “2018 HLH Chinese Expert Consensus”. During induction treatment, it was recommended to evaluate the therapeutic effect every 2 weeks.
1.4. Therapeutic Effects Case 1
(§1) A patient diagnosed with hemophagocytic syndrome was given 20 mg/dose of tablets of the compound of formula II according to the administration regimen described in 1.1. The blood was tested regularly for the plasma concentration. The indexes such as blood routine examination results, biochemical profile and blood coagulation were dynamically monitored, and the patient's condition and vital signs were continuously dynamically monitored closely.
as §1, with “15” for “20”

[1] = Case 2, 15 mg/dose tablets orally twice a day, after one administration cycle

For `N#CC[C@H](C1CCCC1)n1cc(-c2ncnc3[nH]ccc23)c(N)n1` [compound of formula II], which disease status (Case 1, patient, 20 mg/dose tablets orally twice a day (12 h interval), after one administration cycle (28 days)) is on record?
The disease status was “remained stable”.

What about the “tolerability of the treatment” value (Case 1, patient, 20 mg/dose tablets orally twice a day, after one administration cycle (28 days)) of the same molecule?
Its value is “tolerable”.

And the disease status (Case 2, patient, 15 mg/dose tablets orally twice a day (12 h interval), after one administration cycle (28 days))?
The disease status was “remained stable”.

What about the ferritin level decrease [1] of the same molecule?
The ferritin level decrease was ≥ 25%.

And the “sCD25 level decrease (factor)” value [1]?
The value was 3/2.

What about the “therapeutic effect evaluation (2018 HLH Chinese Expert Consensus criteria)” value [1] of the same molecule?
Its value is “partial response”.

What about the “tolerability of the treatment” value [1] of the same molecule?
The value was “tolerable”.
